Like-named read-outs stand apart in the source and are kept apart here.
What was measured:
[1] = tested on: Gli-luciferase activity; experiment: Reporter gene assay (RGA) in TMHh12 cells, antagonism of Gli-luciferase activity in the presence of a Smo agonist; assay type: cell-based
Description: Activity of the compounds was evaluated using a reporter gene assay (RGA) in TMHh12 cells.

[2] = molecular target: mouse Smoothened receptor (Mus musculus, UniProt P56726); experiment: Smo binding assay, displacement of radio-labeled smoothened agonist, filter binding format (mouse); conditions: displacement of small molecule agonist of Smoothened, read-out: Mouse Smo bdg., IC50
Text: A Smo binding assay was developed using radio-labeled smoothened agonist for compound competition.

[3] = molecular target: human Smoothened receptor (Homo sapiens, UniProt Q99835); experiment: Smo binding assay, displacement of radio-labeled smoothened agonist, filter binding format (human); conditions: displacement of small molecule agonist of Smoothened, read-out: Human Smo bdg., IC50
Text: A Smo binding assay was developed using radio-labeled smoothened agonist for compound competition. Table 9 lists the IC50 for displacement of a small molecule agonist of Smoothened determined in a filter binding format for the mouse and human Smoothened receptor.

[4] = 25 nM small molecule Smo agonist, read-out: RGA (25 nM Smo agonist) IC50
[5] = read-out: RGA (1 nM Smo agonist) IC50, 1 nM small molecule Smo agonist

Sequence of mouse Smoothened receptor (P56726 33-793): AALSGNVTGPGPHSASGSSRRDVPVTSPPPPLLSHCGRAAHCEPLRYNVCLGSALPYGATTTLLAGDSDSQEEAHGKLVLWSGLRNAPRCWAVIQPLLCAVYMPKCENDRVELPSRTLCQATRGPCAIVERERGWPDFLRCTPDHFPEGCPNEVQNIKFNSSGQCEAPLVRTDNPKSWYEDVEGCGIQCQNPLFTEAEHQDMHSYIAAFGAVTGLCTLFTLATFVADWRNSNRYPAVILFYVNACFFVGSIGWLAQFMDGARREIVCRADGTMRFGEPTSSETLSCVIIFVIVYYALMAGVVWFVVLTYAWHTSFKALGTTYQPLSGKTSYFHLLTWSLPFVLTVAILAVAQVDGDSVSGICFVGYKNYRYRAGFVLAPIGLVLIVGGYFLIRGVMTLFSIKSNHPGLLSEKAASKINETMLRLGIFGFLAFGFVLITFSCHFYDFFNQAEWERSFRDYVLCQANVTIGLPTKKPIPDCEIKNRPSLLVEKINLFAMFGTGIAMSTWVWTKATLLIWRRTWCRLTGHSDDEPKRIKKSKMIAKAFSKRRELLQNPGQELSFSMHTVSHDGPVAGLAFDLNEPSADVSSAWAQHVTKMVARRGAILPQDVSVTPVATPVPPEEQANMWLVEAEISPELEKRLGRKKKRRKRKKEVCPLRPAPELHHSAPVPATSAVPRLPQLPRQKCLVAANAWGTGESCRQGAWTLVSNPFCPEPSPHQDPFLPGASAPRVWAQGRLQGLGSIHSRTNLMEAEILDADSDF
Sequence of human Smoothened receptor (Q99835 28-787): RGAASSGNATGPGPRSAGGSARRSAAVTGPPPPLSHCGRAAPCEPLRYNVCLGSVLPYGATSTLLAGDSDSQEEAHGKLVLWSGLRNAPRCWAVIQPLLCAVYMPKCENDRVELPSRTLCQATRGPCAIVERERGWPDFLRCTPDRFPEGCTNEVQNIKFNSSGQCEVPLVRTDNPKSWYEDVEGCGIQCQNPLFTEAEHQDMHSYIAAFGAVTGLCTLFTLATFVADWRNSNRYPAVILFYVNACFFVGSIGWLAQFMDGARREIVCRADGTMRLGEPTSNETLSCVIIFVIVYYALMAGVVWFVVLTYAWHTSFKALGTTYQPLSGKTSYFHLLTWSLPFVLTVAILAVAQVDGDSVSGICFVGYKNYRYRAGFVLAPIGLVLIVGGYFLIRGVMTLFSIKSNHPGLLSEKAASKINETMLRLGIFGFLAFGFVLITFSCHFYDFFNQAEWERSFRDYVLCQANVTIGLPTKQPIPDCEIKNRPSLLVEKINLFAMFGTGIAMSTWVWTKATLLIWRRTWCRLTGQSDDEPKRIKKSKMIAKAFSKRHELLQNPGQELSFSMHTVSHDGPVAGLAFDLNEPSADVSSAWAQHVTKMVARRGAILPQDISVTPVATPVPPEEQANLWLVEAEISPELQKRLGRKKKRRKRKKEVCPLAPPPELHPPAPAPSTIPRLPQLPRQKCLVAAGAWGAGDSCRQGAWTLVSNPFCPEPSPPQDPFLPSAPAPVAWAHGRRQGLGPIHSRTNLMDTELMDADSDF

Row | Structure (SMILES) | IC50 [1, 4] [nM] | IC50 [1, 5] [nM] | IC50 [2] [nM] | IC50 [3] [nM]
1 | FC(F)(F)c1ccc(N2CCN(c3nnc(Cc4ccccc4)c4ccccc34)CC2)cc1 [Example 55, 1-Benzyl-4-[4-(4-trifluoromethyl-phenyl)-piperazin-1-yl]-phthalazine] | 1000 to 10000 | 100 to 1000 | 100 to 1000 | 100 to 1000
2 | N#Cc1ccc(N2CCN(c3nnc(Cc4cccc(C(F)(F)F)c4)c4ccccc34)CC2)nc1 [Example 56, 6-{4-[4-(3-Trifluoromethyl-benzyl)-phthalazin-1-yl]-piperazin-1-yl}-nicotinonitrile] | 1000 to 10000 | < 100 | < 100 | 100 to 1000
3 | N#Cc1ccc(Cc2nnc(N3CCN(c4ccc(C#N)cn4)CC3)c3ccccc23)cc1 [Example 57] | 100 to 1000 | < 100 | < 100 | < 100
4 | COc1ccc(Cc2nnc(N3CCN(c4ccc(C#N)cn4)CC3)c3ccccc23)cc1OC [Example 58] |  | 1000 to 10000 | 1000 to 10000 | 1000 to 10000
5 | N#Cc1ccc(N2CCN(c3nnc(Cc4ccc(Cl)cc4)c4ccccc34)CC2)nc1 [Example 59] | 100 to 1000 | < 100 | < 100 | < 100
6 | N#Cc1ccc(N2CCN(c3nnc(Cc4cccc(Cl)c4)c4ccccc34)CC2)nc1 [Example 60] | 100 to 1000 | < 100 | < 100 | 100 to 1000
7 | N#Cc1ccc(N2CCN(c3nnc(CCc4ccccc4)c4ccccc34)CC2)nc1 [Example 61] | 1000 to 10000 | 100 to 1000 | < 100 | 100 to 1000
8 | N#Cc1ccc(N2CCN(c3nnc(Cc4ccc5ccccc5c4)c4ccccc34)CC2)nc1 [Example 62] | 1000 to 10000 | < 100 | < 100 | < 100
9 | N#Cc1ccc(N2CCN(c3nnc(Cc4ccc(C(F)(F)F)cc4)c4ccccc34)CC2)nc1 [Example 63] | 1000 to 10000 | 100 to 1000 | 100 to 1000 | 100 to 1000
10 | COc1ccc(Cc2nnc(N3CCN(c4ccc(C#N)cn4)CC3)c3ccccc23)cc1 [Example 64] | 1000 to 10000 | < 100 | 100 to 1000 | 100 to 1000
11 | N#Cc1ccc(N2CCN(c3nnc(Cc4cccc(C#N)c4)c4ccccc34)CC2)nc1 [Example 65] | 1000 to 10000 | 100 to 1000 | 100 to 1000 | 100 to 1000
12 | N#Cc1ccc(N2CCN(c3nnc(Cc4ccc(Br)cc4)c4ccccc34)CC2)nc1 [Example 66] | 100 to 1000 | < 100 | < 100 | < 100
13 | N#Cc1ccc(N2CCN(c3nnc(Cc4cccc(Br)c4)c4ccccc34)CC2)nc1 [Example 67] | 100 to 1000 | 100 to 1000 | < 100 | 100 to 1000
14 | CC(c1ccccc1)c1nnc(N2CCN(c3ccc(C#N)cn3)CC2)c2ccccc12 (stereo not drawn) [Example 68] | 1000 to 10000 | 100 to 1000 | 1000 to 10000 | 1000 to 10000

The remaining lines, values ahead:

Row | IC50 [1, 4] [nM] | IC50 [1, 5] [nM] | IC50 [2] [nM] | IC50 [3] [nM] | Structure (SMILES)
15 | 1000 to 10000 | 100 to 1000 | 100 to 1000 | 100 to 1000 | CC(C)(C)OC(=O)NC1CN(C(=O)c2ccc(N3CCN(c4nnc(Cc5ccccc5)c5ccccc45)CC3)nc2)C1 [Example 54v]
16 | 1000 to 10000 | 100 to 1000 | 1000 to 10000 | 10000 to 40000 | NC1CN(C(=O)c2ccc(N3CCN(c4nnc(Cc5ccccc5)c5ccccc45)CC3)nc2)C1 [Example 54w]
17 | 100 to 1000 | 100 to 1000 | 100 to 1000 | < 100 | O=C(NC1CN(C(=O)OCc2ccccc2)C1)c1ccc(N2CCN(c3nnc(Cc4ccccc4)c4ccccc34)CC2)nc1 [Example 54x]
18 | 1000 to 10000 | 1000 to 10000 | 1000 to 10000 | 1000 to 10000 | O=C(NC1CNC1)c1ccc(N2CCN(c3nnc(Cc4ccccc4)c4ccccc34)CC2)nc1 [Example 54y]
19 | 100 to 1000 | < 100 | 100 to 1000 | 100 to 1000 | O=C(c1ccc(N2CCN(c3nnc(Cc4ccccc4)c4ccccc34)CC2)nc1)N1CC(O)C1 [Example 54z]
